Assay results: the NIST ThermoML archive (doi:10.1016/j.jct.2004.04.004)
± gives the expanded uncertainty stated by the source.

Experiment: xn = mol fraction of the nth substance listed
Conditions: 101.3 kPa, Liquid

Cc1ccccc1C [1,2-dimethylbenzene] + C[S+](C)[O-]
Conditions	mass density [kg/m3]
293.15 K, x1 = 0.0858	1070.35 ± 0.28
293.15 K, x1 = 0.1359	1054.5 ± 0.26
293.15 K, x1 = 0.1957	1036.82 ± 0.24
293.15 K, x1 = 0.2589	1019.38 ± 0.22
293.15 K, x1 = 0.3283	1001.63 ± 0.2
293.15 K, x1 = 0.3947	985.85 ± 0.21
293.15 K, x1 = 0.4732	968.58 ± 0.23
293.15 K, x1 = 0.5482	953.27 ± 0.24
293.15 K, x1 = 0.6132	940.87 ± 0.26
293.15 K, x1 = 0.6648	931.53 ± 0.27
293.15 K, x1 = 0.7329	919.84 ± 0.29
293.15 K, x1 = 0.8012	908.78 ± 0.3
293.15 K, x1 = 0.8732	897.78 ± 0.31
293.15 K, x1 = 0.9198	891.02 ± 0.32
303.15 K, x1 = 0.0923	1059.85 ± 0.27
303.15 K, x1 = 0.153	1040.84 ± 0.25
303.15 K, x1 = 0.229	1018.94 ± 0.22
303.15 K, x1 = 0.3013	999.82 ± 0.2
303.15 K, x1 = 0.3539	986.84 ± 0.21
303.15 K, x1 = 0.439	967.38 ± 0.23
303.15 K, x1 = 0.4938	955.72 ± 0.24
303.15 K, x1 = 0.5539	943.64 ± 0.26
303.15 K, x1 = 0.615	932.03 ± 0.27
303.15 K, x1 = 0.6849	919.56 ± 0.29
303.15 K, x1 = 0.7537	907.99 ± 0.3
303.15 K, x1 = 0.8327	895.54 ± 0.32
303.15 K, x1 = 0.9123	883.82 ± 0.33
313.15 K, x1 = 0.0794	1055.53 ± 0.26
313.15 K, x1 = 0.1246	1040.99 ± 0.25
313.15 K, x1 = 0.1936	1020.26 ± 0.22
313.15 K, x1 = 0.2638	1000.86 ± 0.2
313.15 K, x1 = 0.3248	985.24 ± 0.21
313.15 K, x1 = 0.4058	966.09 ± 0.23
313.15 K, x1 = 0.5732	931.27 ± 0.27
313.15 K, x1 = 0.649	917.29 ± 0.29
313.15 K, x1 = 0.7044	907.66 ± 0.3
313.15 K, x1 = 0.7724	896.49 ± 0.32
313.15 K, x1 = 0.8355	886.69 ± 0.33
313.15 K, x1 = 0.8943	878.03 ± 0.34
313.15 K, x1 = 0.9234	873.9 ± 0.35
323.15 K, x1 = 0.0833	1045.74 ± 0.25
323.15 K, x1 = 0.1489	1024.89 ± 0.23
323.15 K, x1 = 0.1948	1011.29 ± 0.21
323.15 K, x1 = 0.2587	993.57 ± 0.2
323.15 K, x1 = 0.3278	975.84 ± 0.22
323.15 K, x1 = 0.4039	957.84 ± 0.24
323.15 K, x1 = 0.4632	944.82 ± 0.25
323.15 K, x1 = 0.5399	929.1 ± 0.27
323.15 K, x1 = 0.6012	917.37 ± 0.29
323.15 K, x1 = 0.664	906.05 ± 0.3
323.15 K, x1 = 0.7576	890.35 ± 0.32
323.15 K, x1 = 0.8148	881.37 ± 0.34
323.15 K, x1 = 0.8833	871.21 ± 0.35
323.15 K, x1 = 0.9347	863.97 ± 0.36
333.15 K, x1 = 0.0795	1038.47 ± 0.24
333.15 K, x1 = 0.1399	1019.08 ± 0.22
333.15 K, x1 = 0.2048	999.81 ± 0.2
333.15 K, x1 = 0.2598	984.62 ± 0.21
333.15 K, x1 = 0.3189	969.38 ± 0.23
333.15 K, x1 = 0.3832	953.94 ± 0.24
333.15 K, x1 = 0.4539	938.16 ± 0.26
333.15 K, x1 = 0.5138	925.7 ± 0.28
333.15 K, x1 = 0.5822	912.36 ± 0.3
333.15 K, x1 = 0.6427	901.28 ± 0.31
333.15 K, x1 = 0.7038	890.71 ± 0.32
333.15 K, x1 = 0.7638	880.89 ± 0.34
333.15 K, x1 = 0.8247	871.45 ± 0.35
333.15 K, x1 = 0.9138	858.53 ± 0.37
343.15 K, x1 = 0.0698	1033.25 ± 0.24
343.15 K, x1 = 0.1587	1004.79 ± 0.2
343.15 K, x1 = 0.2184	987.38 ± 0.21
343.15 K, x1 = 0.275	972.02 ± 0.22
343.15 K, x1 = 0.3576	951.35 ± 0.25
343.15 K, x1 = 0.4247	935.94 ± 0.27
343.15 K, x1 = 0.4933	921.29 ± 0.28
343.15 K, x1 = 0.5539	909.2 ± 0.3
343.15 K, x1 = 0.6349	894.13 ± 0.32
343.15 K, x1 = 0.7038	882.21 ± 0.34
343.15 K, x1 = 0.7971	867.23 ± 0.36
343.15 K, x1 = 0.8621	857.5 ± 0.37
343.15 K, x1 = 0.9324	847.62 ± 0.38
353.15 K, x1 = 0.0431	1034 ± 0.24
353.15 K, x1 = 0.1383	1002.49 ± 0.2
353.15 K, x1 = 0.2043	982.8 ± 0.21
353.15 K, x1 = 0.2748	963.47 ± 0.23
353.15 K, x1 = 0.3534	943.75 ± 0.26
353.15 K, x1 = 0.4148	929.55 ± 0.27
353.15 K, x1 = 0.4829	914.87 ± 0.29
353.15 K, x1 = 0.5457	902.24 ± 0.31
353.15 K, x1 = 0.6198	888.33 ± 0.33
353.15 K, x1 = 0.6831	877.21 ± 0.34
353.15 K, x1 = 0.7598	864.61 ± 0.36
353.15 K, x1 = 0.8244	854.67 ± 0.38
353.15 K, x1 = 0.8846	845.91 ± 0.39
353.15 K, x1 = 0.9423	837.96 ± 0.4

Cc1cccc(C)c1 [1,3-dimethylbenzene] + C[S+](C)[O-]
Conditions	mass density [kg/m3]
293.15 K, x1 = 0.0679	1074.3 ± 0.33
293.15 K, x1 = 0.1489	1046.5 ± 0.35
293.15 K, x1 = 0.2044	1028.97 ± 0.38
293.15 K, x1 = 0.2613	1012.13 ± 0.41
293.15 K, x1 = 0.3487	988.35 ± 0.47
293.15 K, x1 = 0.3975	976.03 ± 0.51
293.15 K, x1 = 0.4578	961.7 ± 0.56
293.15 K, x1 = 0.5244	946.87 ± 0.61
293.15 K, x1 = 0.5896	933.28 ± 0.66
293.15 K, x1 = 0.6597	919.61 ± 0.71
293.15 K, x1 = 0.7393	905.13 ± 0.77
293.15 K, x1 = 0.8218	891.15 ± 0.82
293.15 K, x1 = 0.8835	881.33 ± 0.87
293.15 K, x1 = 0.9412	872.62 ± 0.9
303.15 K, x1 = 0.0735	1063.89 ± 0.32
303.15 K, x1 = 0.1579	1035.01 ± 0.35
303.15 K, x1 = 0.2387	1010.01 ± 0.39
303.15 K, x1 = 0.3087	990.22 ± 0.44
303.15 K, x1 = 0.3754	972.78 ± 0.49
303.15 K, x1 = 0.4147	963.09 ± 0.52
303.15 K, x1 = 0.4892	945.8 ± 0.58
303.15 K, x1 = 0.5539	931.86 ± 0.63
303.15 K, x1 = 0.6209	918.33 ± 0.68
303.15 K, x1 = 0.6902	905.23 ± 0.73
303.15 K, x1 = 0.7532	894.02 ± 0.77
303.15 K, x1 = 0.8149	883.65 ± 0.82
303.15 K, x1 = 0.8687	875.05 ± 0.85
303.15 K, x1 = 0.9373	864.64 ± 0.9
313.15 K, x1 = 0.0854	1051.04 ± 0.31
313.15 K, x1 = 0.1527	1028.01 ± 0.33
313.15 K, x1 = 0.2357	1002.14 ± 0.38
313.15 K, x1 = 0.2978	984.4 ± 0.43
313.15 K, x1 = 0.3576	968.48 ± 0.48
313.15 K, x1 = 0.4077	955.97 ± 0.52
313.15 K, x1 = 0.4676	941.86 ± 0.56
313.15 K, x1 = 0.5239	929.42 ± 0.61
313.15 K, x1 = 0.5823	917.24 ± 0.65
313.15 K, x1 = 0.6521	903.59 ± 0.7
313.15 K, x1 = 0.7389	887.82 ± 0.76
313.15 K, x1 = 0.7912	878.91 ± 0.8
313.15 K, x1 = 0.8513	869.17 ± 0.84
313.15 K, x1 = 0.9327	856.77 ± 0.89
323.15 K, x1 = 0.0746	1046.35 ± 0.3
323.15 K, x1 = 0.1647	1015.41 ± 0.33
323.15 K, x1 = 0.2138	999.97 ± 0.36
323.15 K, x1 = 0.2847	979.25 ± 0.42
323.15 K, x1 = 0.3579	959.6 ± 0.48
323.15 K, x1 = 0.4135	945.75 ± 0.52
323.15 K, x1 = 0.4724	931.98 ± 0.57
323.15 K, x1 = 0.5249	920.42 ± 0.61
323.15 K, x1 = 0.6038	904.17 ± 0.67
323.15 K, x1 = 0.6739	890.78 ± 0.72
323.15 K, x1 = 0.7598	875.54 ± 0.78
323.15 K, x1 = 0.8133	866.63 ± 0.81
323.15 K, x1 = 0.8732	857.15 ± 0.85
323.15 K, x1 = 0.9239	849.51 ± 0.89
333.15 K, x1 = 0.0673	1040.47 ± 0.29
333.15 K, x1 = 0.1568	1009.3 ± 0.32
333.15 K, x1 = 0.2249	987.86 ± 0.37
333.15 K, x1 = 0.2935	968.02 ± 0.43
333.15 K, x1 = 0.3687	948.04 ± 0.49
333.15 K, x1 = 0.4312	932.71 ± 0.54
333.15 K, x1 = 0.4921	918.76 ± 0.59
333.15 K, x1 = 0.5638	903.47 ± 0.64
333.15 K, x1 = 0.6304	890.23 ± 0.69
333.15 K, x1 = 0.693	878.57 ± 0.73
333.15 K, x1 = 0.7563	867.46 ± 0.77
333.15 K, x1 = 0.8137	857.93 ± 0.81
333.15 K, x1 = 0.8846	846.82 ± 0.86
333.15 K, x1 = 0.9355	839.26 ± 0.89
343.15 K, x1 = 0.0647	1032.84 ± 0.28
343.15 K, x1 = 0.1491	1003.11 ± 0.31
343.15 K, x1 = 0.2139	982.42 ± 0.36
343.15 K, x1 = 0.2749	964.42 ± 0.41
343.15 K, x1 = 0.3588	941.76 ± 0.48
343.15 K, x1 = 0.4395	921.95 ± 0.55
343.15 K, x1 = 0.5023	907.73 ± 0.59
343.15 K, x1 = 0.5539	896.74 ± 0.63
343.15 K, x1 = 0.6135	884.76 ± 0.67
343.15 K, x1 = 0.675	873.12 ± 0.72
343.15 K, x1 = 0.7523	859.44 ± 0.77
343.15 K, x1 = 0.8132	849.34 ± 0.81
343.15 K, x1 = 0.8643	841.29 ± 0.84
343.15 K, x1 = 0.9247	832.25 ± 0.88
353.15 K, x1 = 0.0734	1020.97 ± 0.27
353.15 K, x1 = 0.1359	998.8 ± 0.3
353.15 K, x1 = 0.1844	982.84 ± 0.34
353.15 K, x1 = 0.2258	970 ± 0.38
353.15 K, x1 = 0.2844	952.95 ± 0.43
353.15 K, x1 = 0.3535	934.34 ± 0.48
353.15 K, x1 = 0.4241	916.83 ± 0.54
353.15 K, x1 = 0.4798	903.97 ± 0.58
353.15 K, x1 = 0.5323	892.53 ± 0.62
353.15 K, x1 = 0.6042	877.86 ± 0.67
353.15 K, x1 = 0.6724	864.89 ± 0.72
353.15 K, x1 = 0.7539	850.47 ± 0.77
353.15 K, x1 = 0.8375	836.8 ± 0.83
353.15 K, x1 = 0.9144	825.15 ± 0.88
